Experimental findings from US11958814B1, “3-(4-nitrophenyl)-5-((2-isopropyl-5-methylphenoxy)methyl)-1,2,4-oxadiazole as an anti-cancer and antimicrobial compound” (KING FAISAL UNIVERSITY, priority 2023, dated 2024) are described below.

The test system of one series is Aspergillus flavus. As to the kind of experiment: Agar plate disc-diffusion, inhibition zone (antifungal). The conditions noted are these: 72 h for fungi. The class given is cell-based. As to the method:
(§1) The agar plate disc-diffusion method was applied. Sterilized filter papers (6 mm in diameter) were wetted with 10 μL of a solution of 3-(4-nitrophenyl)-5-((2-isopropyl-5-methylphenoxy)methyl)-1,2,4-oxadiazole (3) to be tested, containing 10 mg/mL in DMSO, and the discs were allowed to air dry. The discs were then placed onto the surface of agar plates (nutrient agar for bacteria and Sabouraud's dextrose agar for fungi) seeded with the test organism. Each plate contained 15 mL of the agar medium, previously seeded with 0.2 mL of the broth culture of each organism pregrown for 18 hours. The plates were incubated at 37° C. for 48 h, and 72 h for fungi. The inhibition zones were measured in mm. Discs impregnated with DMSO were used as a control, and its inhibition zone was subtracted from the tested compound actual inhibition zone.
(In general: A growth-free zone around the sample is the usual read-out of agar diffusion tests.)

Series [1] deals with Chrysosporium keratinophilum. The series is described as above. It is filed as cell-based. The conditions noted are these: 72 h for fungi. As for the experimental part: as §1
For a further series, the system named is different microbes. As to the kind of experiment: Antimicrobial screening by agar plate disc-diffusion, overall statement. It is filed as cell-based. The conditions noted are these: against different microbes (bacteria and fungi of Tables 1 and 2). As to the method: as §1
A further series deals with Escherichia coli. The experiment in a line: Agar plate disc-diffusion, inhibition zone. The class given is cell-based. The conditions noted are these: 37° C., 48 h. As for the experimental part:
as §1

The test system of the next series is Bacillus cereus. The experiment in a line: Agar plate disc-diffusion, inhibition zone. It is filed as cell-based. The conditions noted are these: 37° C., 48 h. As for the experimental part: as §1
In a further series the test system is Staphylococcus aureus. As to the kind of experiment: Agar plate disc-diffusion, inhibition zone. It is filed as cell-based. The settings on record: 37° C., 48 h. As to the method:
as §1

The subject of a further series is Pseudomonas aeruginosa. The experiment in a line: Agar plate disc-diffusion, inhibition zone. The class given is cell-based. The conditions noted are these: 37° C., 48 h. As for the experimental part:
as §1

The test system of series [2] is human osteosarcoma cells (MG-63). The experiment in a line: Cytotoxicity by SRB assay. The class given is cell-based. The settings on record: MG-63 cells, 0.01 μM to 100 μM for 72 h. The source says: (§2) The anticancer activity of the described synthesized compounds against highly aggressive androgen-independent metastatic human prostate cancer cells (PC3) and osteosarcoma (MG-63) cells. The human prostate cancer cells (PC3) and human osteosarcoma cells (MG-63) were obtained from Nawah Scientific Inc. (Mokatam, Cairo, Egypt) and cultured in DMEM (Dulbecco's modified eagle's medium), Gibco, USA, supplemented with fetal bovine serum (FBS) at a concentration of 10% and 100 U/mL of penicillin and streptomycin (PS). The Cells were incubated at 37° C. in a humidified environment that contained 5% CO2.
(§3) Cells were seeded in 96-well plates as aliquots of 100 μL cell suspension and incubated in a complete media for 24 h. afterward, cells were treated with 3-(4-nitrophenyl)-5-((2-isopropyl-5-methylphenoxy)methyl)-1,2,4-oxadiazole at diverse concentrations ranging from 0.01 μM to 100 μM for 72 h. Then, cells were fixed at 4° C. for one hour with 150 μL of 10% trichloroacetic acid (TCA). […] Then, 150 μL of Tris pH 10.5 (10 mM) was added, and the absorbance was measured at 540 nm using a BMG LABTECH®-FLUOstar Omega microplate reader (Ortenberg, Germany). Half maximal inhibitory concentrations (IC50) values were calculated for each experiment using GraphPad Prism 6 software. […]
(§4) The inhibition was calculated using the following equation: Inhibition %=100−Average Viability
(The SRB assay estimates cell density from bound dye.)

Series [3] concerns human prostate cancer cells (PC3). As to the kind of experiment: Cytotoxicity by SRB assay. The class given is cell-based. The settings on record: 0.01 μM to 100 μM for 72 h.
Excerpt: as §2, §3, §4

[4] abbreviates: A = concentration of comp. = 10,000 μL.
Setting [5] is: B = concentration of comp. = 30,000 μL.
The mark [6] stands for this setting: C = concentration of comp. = 50,000 μL.
[7] abbreviates: A = concentration of comp. = 10,000 μg/mL.
The mark [8] stands for this setting: A = concentration of comp. = 10 mg/mL.

In the case of `Cc1ccc(C(C)C)c(OCc2nc(-c3ccc([N+](=O)[O-])cc3)no2)c1` [Compound 3, 3-(4-nitrophenyl)-5-((2-isopropyl-5-methylphenoxy)methyl)-1,2,4-oxadiazole], the melting point (in general, the temperature, or range, at which the solid turns liquid) was in the range of 172 to 173 °C. The inhibition zone in the series on Aspergillus flavus (setting [4]) is on record as 20 mm. The compound further came in with an inhibition zone with Aspergillus flavus (setting [5]) of 23 mm. The inhibition zone in the series on Aspergillus flavus (setting [6]) is listed as 36 mm. In addition, the inhibition zone in series [1] (setting [4]) worked out at 28 mm. Moreover, the inhibition zone in series [1] (setting [5]) stood at 30 mm. This compound also displayed an inhibition zone in series [1] (setting [6]) of 49 mm. Further, the “antimicrobial activity (in words)” value in the series on different microbes is “excellent antimicrobial activities”. In the series on Escherichia coli (setting [4]), this compound displayed an inhibition zone of 27 mm. The compound further displayed an inhibition zone in the series with Escherichia coli (setting [5]) of 36 mm. This compound also came in with an inhibition zone in the series on Escherichia coli (setting [6]) of 50 mm. The compound also returned an inhibition zone in the series on Bacillus cereus (setting [7]) of 22 mm. The inhibition zone in the series with Bacillus cereus (setting [5]) is 25 mm. In the series on Bacillus cereus (setting [6]), the inhibition zone is recorded as 38 mm. The inhibition zone in the series on Staphylococcus aureus (setting [8]) came to 18 mm. Moreover, the inhibition zone in the series with Staphylococcus aureus (setting [5]) amounted to 23 mm. This compound also came in with an inhibition zone in the series with Staphylococcus aureus (setting [6]) of 35 mm. Further, the inhibition zone in the series on Pseudomonas aeruginosa (setting [4]) was determined as 26 mm. Also, the inhibition zone in the series with Pseudomonas aeruginosa (setting [5]) was determined as 27 mm. For the same compound, the inhibition zone with Pseudomonas aeruginosa (setting [6]) is 43 mm.
In the case of `Cc1ccc(C(C)C)c(OCc2nc(-c3ccc([N+](=O)[O-])cc3)no2)c1` [3-(4-nitrophenyl)-5-((2-isopropyl-5-methylphenoxy)methyl)-1,2,4-oxadiazole], the “antiproliferative activity (in words)” value in [2] and in series [3] was “excellent antiproliferative activities” each time.
With `O=C(O)c1cn(C2CC2)c2cc(N3CCNCC3)c(F)cc2c1=O` [Cip., ciprofloxacin, reference compound], the inhibition zone with Aspergillus flavus (setting [4]) turned out to be 29 mm; in the series on Aspergillus flavus (setting [5]), 30 mm; in the series with Aspergillus flavus (setting [6]), 42 mm; in series [1] (setting [4]), 29 mm; in series [1] (setting [5]) it was 30 mm; in [1] (setting [6]), 53 mm. Moreover, the inhibition zone in the series with Escherichia coli (setting [4]) was 30 mm; in the series with Escherichia coli (setting [5]), 39 mm; in the series with Escherichia coli (setting [6]) it was 60 mm; in the series with Bacillus cereus (setting [7]), 29 mm; with Bacillus cereus (setting [5]), 30 mm; with Bacillus cereus (setting [6]), 42 mm. Also, the inhibition zone with Staphylococcus aureus (setting [8]) came out at 43 mm; in the series with Staphylococcus aureus (setting [5]), 44 mm; with Staphylococcus aureus (setting [6]) it was 53 mm; in the series with Pseudomonas aeruginosa (setting [4]) it was 29 mm; with Pseudomonas aeruginosa (setting [5]) it was 30 mm; with Pseudomonas aeruginosa (setting [6]), 53 mm.
